Test results as given in patent publication US12617792B2, “Purine derivative, intermediate and application thereof in preparing anticancer medicine” (SUZHOU RAYMON PHARMACEUTICALS COMPANY, LTD., priority 2019, dated 2026).

Each molecule was assayed against T1, PI3K-alpha enzyme (Homo sapiens, UniProt P42336) (assay: PI3-Kinase (human) HTRF Assay kit, PI3K alpha enzyme IC50 determination). Settings: ATP 10 μM, PIP2 10 μM, 1% DMSO, double holes for each concentration, read-out: the half inhibitory concentrations (IC50) of the tested compounds on PI3K-alpha.
T1 construct: purchased Millipore 14-602
T1 sequence (P42336 whole entry): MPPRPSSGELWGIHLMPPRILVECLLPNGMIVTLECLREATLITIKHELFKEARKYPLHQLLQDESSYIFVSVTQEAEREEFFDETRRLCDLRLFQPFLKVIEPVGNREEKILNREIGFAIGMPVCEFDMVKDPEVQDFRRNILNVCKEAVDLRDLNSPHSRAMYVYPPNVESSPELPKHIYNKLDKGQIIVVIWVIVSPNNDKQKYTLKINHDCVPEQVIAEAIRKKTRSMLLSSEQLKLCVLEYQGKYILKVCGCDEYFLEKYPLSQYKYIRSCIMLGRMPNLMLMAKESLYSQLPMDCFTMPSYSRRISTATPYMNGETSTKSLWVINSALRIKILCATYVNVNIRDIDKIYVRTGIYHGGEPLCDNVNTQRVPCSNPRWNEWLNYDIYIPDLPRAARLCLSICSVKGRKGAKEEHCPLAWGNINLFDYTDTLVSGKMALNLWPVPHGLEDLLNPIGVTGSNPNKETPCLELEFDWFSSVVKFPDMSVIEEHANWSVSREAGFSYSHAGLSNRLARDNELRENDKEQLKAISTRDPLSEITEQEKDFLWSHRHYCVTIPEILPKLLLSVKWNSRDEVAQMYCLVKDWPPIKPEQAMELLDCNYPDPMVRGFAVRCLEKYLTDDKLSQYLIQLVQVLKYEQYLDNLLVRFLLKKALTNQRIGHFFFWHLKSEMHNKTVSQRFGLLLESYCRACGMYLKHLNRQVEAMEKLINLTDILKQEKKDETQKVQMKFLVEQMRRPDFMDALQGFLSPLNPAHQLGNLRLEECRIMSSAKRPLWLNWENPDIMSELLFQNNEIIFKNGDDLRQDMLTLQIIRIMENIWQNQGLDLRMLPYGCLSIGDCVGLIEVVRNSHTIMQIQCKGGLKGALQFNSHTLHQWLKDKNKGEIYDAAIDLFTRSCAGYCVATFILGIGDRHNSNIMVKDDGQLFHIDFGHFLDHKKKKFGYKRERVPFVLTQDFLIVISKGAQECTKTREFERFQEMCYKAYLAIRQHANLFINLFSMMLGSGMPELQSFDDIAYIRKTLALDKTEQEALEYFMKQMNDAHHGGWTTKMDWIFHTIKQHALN
T1 sequence (P27986 whole entry partner): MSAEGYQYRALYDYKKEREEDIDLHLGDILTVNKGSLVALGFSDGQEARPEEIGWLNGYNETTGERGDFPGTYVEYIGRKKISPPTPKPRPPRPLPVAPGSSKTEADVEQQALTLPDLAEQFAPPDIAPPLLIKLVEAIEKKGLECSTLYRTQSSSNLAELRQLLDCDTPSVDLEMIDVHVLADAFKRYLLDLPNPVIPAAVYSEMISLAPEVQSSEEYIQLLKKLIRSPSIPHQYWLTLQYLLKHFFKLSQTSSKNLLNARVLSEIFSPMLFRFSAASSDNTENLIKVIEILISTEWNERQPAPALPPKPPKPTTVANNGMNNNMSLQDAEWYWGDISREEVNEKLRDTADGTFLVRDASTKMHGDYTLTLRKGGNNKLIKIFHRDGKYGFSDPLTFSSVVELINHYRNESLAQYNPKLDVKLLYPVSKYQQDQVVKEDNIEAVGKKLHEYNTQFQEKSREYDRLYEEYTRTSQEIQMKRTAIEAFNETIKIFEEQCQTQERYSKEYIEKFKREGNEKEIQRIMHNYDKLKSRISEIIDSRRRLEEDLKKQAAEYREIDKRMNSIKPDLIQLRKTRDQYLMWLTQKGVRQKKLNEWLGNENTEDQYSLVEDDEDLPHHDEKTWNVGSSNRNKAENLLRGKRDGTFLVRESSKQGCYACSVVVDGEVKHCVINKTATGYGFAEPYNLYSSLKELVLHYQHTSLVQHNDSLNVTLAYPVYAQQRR
Type: biochemical
Description: Prepare fresh before each use. […] 1 μL of each was added to 24 μL 1× Reaction Buffer. 5 μL of each diluted solution was added into a 384-well plate and contained 1% DMSO. […] This working solution should be prepared with 0.1-0.2 ml more to meet the control usage and dead volume. […] In a 20 μL kinase reaction system, the concentration of ATP was 10 μM. For example, to prepare 2 ml ATP working solution, take 8 μL 10 mM ATP and add it to 1992 μL 1× reaction buffer.

Going from `O=C(Nc1ccc(-c2nc(N3CCOCC3)c3[nH]cnc3n2)cc1)Nc1ccc(CO)c(C(F)(F)F)c1` [RMP-D07, 1-(4-(hydroxymethyl)-3-(trifluoromethyl)phenyl)-3-(4-(6-morpholino-7H-purin-2-yl)phenyl)urea] to `O=C(Nc1ccc(CO)cc1)Nc1ccc(-c2nc(N3CCOCC3)c3[nH]cnc3n2)cc1` [RMP-D06, 1-(4-(hydroxymethyl)phenyl)-3-(4-(6-morpholino-7H-purin-2-yl)phenyl)urea], the IC50 falls from 215 nM to 22.6 nM (9.5-fold).

`O=C(Nc1ccc(COCCN2CCOCC2)cc1)Nc1ccc(-c2nc(N3CCOCC3)c3[nH]cnc3n2)cc1` [RMP-D08, 1-(4-(6-morpholino-7H-purin-2-yl)phenyl)-3-(4-((2-morpholinoethoxy)methyl)phenyl)urea] gave an IC50 of 46.1 nM.
